According to patent publication US10882856B2 (BeiGene, Ltd., priority 2017, dated 2021):
Structures can show the parent of a compound that is named as a salt.

What was measured:
IDO1 [1] = biological target: T1, IDO1 (Homo sapiens, UniProt P14902); test: IDO1 enzymatic assay; assay type: biochemical; design: His tag (N); made in house; host or cells: E. coli; conditions: read-out: Enzyme IC50 IDO1
Summary of the method: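 Compound was incubated with 50 nM His-tagged IDO1 from E. coli, 1.3 mM D-tryptophan, 5 mM L-ascorbic acid, methylene blue and 0.4 mg/mL catalase in 50 mM potassium phosphate pH 7.5, 0.1% BSA, at 24 °C for 1.5 hours. Activity was the slope of N'-formylkynurenine formation read continuously at 321 nm for 1 hour. IC50 was obtained from remaining activity versus compound concentration.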

[2] = biological target: T2, cellular TDO2 in HEK293-TDO2 cells (Homo sapiens, UniProt P48775); test: 293-TDO2 cell-based assay (Kyn colorimetric); conditions: 48 hours of incubation
T2 construct: expressed in transfected cells; host or cells: HEK293 (ATCC), stably transfected
T2 sequence (P48775 whole entry): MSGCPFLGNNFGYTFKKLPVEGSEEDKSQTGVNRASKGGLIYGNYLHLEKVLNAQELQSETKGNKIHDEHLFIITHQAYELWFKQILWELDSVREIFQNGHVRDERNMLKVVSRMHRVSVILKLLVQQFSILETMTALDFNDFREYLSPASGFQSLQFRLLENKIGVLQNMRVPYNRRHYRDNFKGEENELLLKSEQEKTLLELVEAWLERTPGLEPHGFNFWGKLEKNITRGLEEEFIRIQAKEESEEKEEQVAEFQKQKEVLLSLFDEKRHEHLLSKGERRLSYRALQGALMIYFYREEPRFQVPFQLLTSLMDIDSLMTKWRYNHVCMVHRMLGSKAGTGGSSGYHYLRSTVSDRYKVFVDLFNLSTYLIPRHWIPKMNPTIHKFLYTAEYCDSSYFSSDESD
Summary of the method: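 Kyn formed from L-Trp was read colorimetrically at 480 nm (TCA deproteinisation, then 2% 4-(dimethylamino)benzaldehyde). Compounds were added to 293-TDO2 cells 4 h post-seeding and left 48 h at 37° C. A four-parameter logistic model gave IC50 values.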

IDO1 [3] = biological target: T1, IDO1; test: Hela cell-based IDO1 assay; conditions: Hela cells
Summary of the method: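 HeLa cells were plated at 8000 per well in 96-well plates containing phenol red-free DMEM with 10% FBS, and after 4 hours compound dilutions made in DMSO were added together with IFN-γ (final 100 ng/mL) and 0.4 mM L-Trp before 48 hours at 37 °C, 5% CO2. Supernatants were deproteinised with trichloroacetic acid, mixed with 2% 4-(dimethylamino)benzaldehyde and read at 480 nm for kynurenine. Four-parameter logistic fits were run in XLfit. Potency was derived from these fits.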

T1 sequence (P14902 whole entry): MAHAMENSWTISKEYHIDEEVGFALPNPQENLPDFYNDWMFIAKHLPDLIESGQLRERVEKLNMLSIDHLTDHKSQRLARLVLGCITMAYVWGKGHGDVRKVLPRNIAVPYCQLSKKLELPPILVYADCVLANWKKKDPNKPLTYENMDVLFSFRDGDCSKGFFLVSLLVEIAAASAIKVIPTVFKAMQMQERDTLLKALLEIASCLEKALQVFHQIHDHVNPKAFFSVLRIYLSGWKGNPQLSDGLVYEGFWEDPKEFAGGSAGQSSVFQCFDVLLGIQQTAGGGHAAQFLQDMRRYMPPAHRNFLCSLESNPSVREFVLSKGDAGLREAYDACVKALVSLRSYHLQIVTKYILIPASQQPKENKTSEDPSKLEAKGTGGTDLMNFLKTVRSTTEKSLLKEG

Row | SMILES | IC50 (IDO1 [1]) [µM] | EC50 [2] [µM] | EC50 (IDO1 [3]) [µM]
1 | OC(c1c(C2CC2)ccc2cncn12)C1CCC(c2ccc(Oc3ccccc3)cc2)CC1 (stereo not drawn) [Example D120, (6-cyclopropylimidazo[1,5-a]pyridin-5-yl)(4-(4-phenoxyphenyl)cyclohexyl)methanol] | 0.1 | > 10 | 0.7
2 | O[C@@H](c1c(C2CC2)ccc2cncn12)[C@H]1CC[C@H](c2ccc(-c3ccccc3)cc2)CC1 (single isomer, unassigned) [Example D119b] | 2.2 | > 10 | 3.53
3 | OC(c1c(C2CC2)ccc2cncn12)C1CCC(c2ccccc2)CC1 (stereo not drawn) [Example D101, (6-cyclopropylimidazo[1,5-a]pyridin-5-yl)(4-phenylcyclohexyl)methanol] | 0.027 | > 10 | 0.1
4 | O[C@H](c1c(C2CC2)ccc2cncn12)[C@H]1CC[C@H](c2ccc(F)cc2F)CC1 (single isomer, unassigned) [Example D127a] | 0.016 | > 10 | 0.083
5 | OC(c1c(C2CC2)ccn2cncc12)C1CCN(C2CC2)CC1 (stereo not drawn) [Example C139, (7-cyclopropylimidazo[1,5-a]pyridin-8-yl)(1-cyclopropylpiperidin-4-yl)methanol] | 0.89 | > 10 | > 10
6 | O[C@@H](c1c(C2CC2)ccn2cncc12)[C@H]1CC[C@H](c2ccnc3ccccc32)CC1 (single isomer, unassigned) [Example C130b] | 2.5 | > 10 | 6.22
7 | OC(c1c(C2CC2)ccn2cncc12)C1CCN(c2ccccc2)CC1 (single isomer, unassigned) [Example C136a] | 0.021 | > 10 | 0.047
8 | OC(c1c(C2CC2)ccn2cncc12)C1CCC(c2ccnc3ccc(F)cc23)CC1 (stereo not drawn) [Example C128, (7-cyclopropylimidazo[1,5-a]pyridin-8-yl)(4-(6-fluoroquinolin-4-yl)cyclohexyl)methanol] | 0.039 | > 10 | 0.051
9 | N#Cc1ccc(N2CCC(C(O)c3c(C4CC4)ccn4cncc34)CC2)cc1 (stereo not drawn) [Example C144, 4-(4-((7-cyclopropylimidazo[1,5-a]pyridin-8-yl)(hydroxy)methyl)piperidin-1-yl)benzonitrile] | 0.04 | > 10 | 0.748
10 | OC(c1c(C2CC2)ccn2cncc12)C1CCN(c2ccccc2)CC1 (single isomer, unassigned) [Example C136b] | 5.4 | > 10 | > 10
11 | OC(c1c(C2CC2)ccn2cncc12)C1CCC(c2ccc(C(F)(F)F)nc2)CC1 (stereo not drawn) [Example C120, (7-cyclopropylimidazo[1,5-a]pyridin-8-yl)(4-(6-(trifluoromethyl)pyridin-3-yl)cyclohexyl)methanol] | 0.096 | > 10 | 2.18
12 | OC(c1c(C2CC2)ccc2cncn12)[C@H]1CC[C@H](c2ccc(Cl)cc2)CC1 (single isomer, unassigned) [Example D103b] | 7.8 | > 10 | 6.88
13 | O[C@@H](c1c(C2CC2)ccn2cncc12)[C@H]1CC[C@H](c2ccc(F)cc2)CC1 (single isomer, unassigned) [Example C107b] | 5.1 | > 10 | > 10
14 | OC(c1c(C2CC2)ccc2cncn12)[C@H]1CC[C@@H](c2ccc(Cl)cc2)CC1 (single isomer, unassigned) [Example D103a] | 1.9 | > 10 | > 10
15 | O[C@@H](c1c(C2CC2)ccc2cncn12)[C@H]1CC[C@H](c2ccc(Br)cc2)CC1 (single isomer, unassigned) [Example D118b] | > 10 | > 10 | 8.41
16 | COc1cccc([C@H]2CC[C@H]([C@@H](O)c3c(C4CC4)ccn4cncc34)CC2)c1 (single isomer, unassigned) [Example C114b] | 4.7 | > 10 | > 10
17 | Oc1ccc(C2CCC(C(O)c3c(C4CC4)ccc4cncn34)CC2)cc1 (stereo not drawn) [Example D106, 4-(4-((6-cyclopropylimidazo[1,5-a]pyridin-5-yl)(hydroxy)methyl)cyclohexyl)phenol] | 0.03 | > 10 | 0.068

Second part, the compound after the results:

Row | IC50 (IDO1 [1]) [µM] | EC50 [2] [µM] | EC50 (IDO1 [3]) [µM] | SMILES
18 | 0.015 | > 10 | 0.052 | O[C@H](c1c(C2CC2)ccc2cncn12)[C@H]1CC[C@H](c2ccc3ncccc3c2)CC1 (single isomer, unassigned) [Example D157a]
19 | 0.061 | > 10 | 0.364 | OC(c1c(C2CC2)ccc2cncn12)C1CCC(c2ccc3ccsc3c2)CC1 (stereo not drawn) [Example D134, (4-(benzo[b]thiophen-6-yl)cyclohexyl)(6-cyclopropylimidazo[1,5-a]pyridin-5-yl)methanol]
20 | 0.038 | > 10 | 0.042 | CC(C)c1ccc2cncn2c1C(O)C1CCC(c2cccc(Cl)c2)CC1 (stereo not drawn) [Example D168, (4-(3-chlorophenyl)cyclohexyl)(6-isopropylimidazo[1,5-a]pyridin-5-yl)methanol]
21 | 0.017 | > 10 | 0.08 | COc1ccc([C@H]2CC[C@H](C(O)c3c(C4CC4)ccc4cncn34)CC2)cc1Cl (single isomer, unassigned) [Example D148a, hydrochloride]
22 | 0.044 | > 10 | 0.496 | OC(c1c(C2CC2)ccc2cncn12)C1CCC(c2ccc3sccc3c2)CC1 (stereo not drawn) [Example D133, (4-(benzo[b]thiophen-5-yl)cyclohexyl)(6-cyclopropylimidazo[1,5-a]pyridin-5-yl)methanol]
23 | 0.022 | > 10 | 0.036 | OC(c1c(C2CC2)ccc2cncn12)C1CCN(c2ccc(F)cc2)CC1 (stereo not drawn) [Example D171, (6-cyclopropylimidazo[1,5-a]pyridin-5-yl)(1-(4-fluorophenyl)piperidin-4-yl)methanol]
24 | 1.4 | > 10 | 1.1 | O[C@@H](c1c(C2CC2)ccc2cncn12)[C@H]1CC[C@H](c2ccnc3ccc(F)cc32)CC1 (single isomer, unassigned) [Example D150b]
25 | 0.015 | > 10 | 0.128 | NC(=O)Nc1ccc([C@H]2CC[C@H]([C@H](O)c3c(C4CC4)ccc4cncn34)CC2)cc1 [Example D160, 1-(4-((1S,4r)-4-((S)-(6-cyclopropylimidazo[1,5-a]pyridin-5-yl)(hydroxy)methyl)cyclohexyl)phenyl)urea]
26 | 0.04 | > 10 | 0.048 | OC(c1c(C2CC2)ccc2cncn12)C1CCC(c2ccc(F)c3ncccc23)CC1 (stereo not drawn) [Example D163, (6-cyclopropylimidazo[1,5-a]pyridin-5-yl)(4-(8-fluoroquinolin-5-yl)cyclohexyl)methanol]
27 | 0.055 | > 10 | 0.378 | OC(c1c(C2CC2)ccc2cncn12)C1CCC(c2cccc(F)c2F)CC1 (stereo not drawn) [Example D132, (6-cyclopropylimidazo[1,5-a]pyridin-5-yl)(4-(2,3-difluorophenyl)cyclohexyl)methanol]
28 | 0.032 | > 10 | 0.275 | OC(c1c(C2CC2)ccc2cncn12)[C@H]1CC[C@H](c2ccc(Cl)cc2F)CC1 (single isomer, unassigned) [Example D131a]
29 | 0.023 | > 10 | 0.021 | OC(c1c(C2CC2)ccc2cncn12)C1CCC(c2cccc3ncccc23)CC1 (stereo not drawn) [Example D141, (6-cyclopropylimidazo[1,5-a]pyridin-5-yl)(4-(quinolin-5-yl)cyclohexyl)methanol]
30 | 0.028 | > 10 | 0.027 | OC(c1c(C2CC2)ccc2cncn12)[C@H]1CC[C@H](c2csc3ccccc32)CC1 (single isomer, unassigned) [Example D155a]
31 | > 10 | > 10 | 8.9 | O[C@@H](c1c(C2CC2)ccc2cncn12)[C@H]1CC[C@H](c2ccc3sccc3c2)CC1 (single isomer, unassigned) [Example D133b]
32 | 0.033 | > 10 | 0.443 | COc1ccc([C@H]2CC[C@H](C(O)c3c(C4CC4)ccc4cncn34)CC2)c2ccccc12 (single isomer, unassigned) [Example D139a]
33 | 1.8 | > 10 | 1.75 | O[C@@H](c1c(C2CC2)ccc2cncn12)[C@H]1CC[C@H](c2ccnc3ccccc32)CC1 (single isomer, unassigned) [Example D140b]
34 | 2.7 | > 10 | 5.4 | O[C@@H](c1c(C2CC2)ccc2cncn12)C1CCN(c2cccc(F)c2)CC1 [Example D172b]
35 | 9 | > 10 | 5.63 | O[C@@H](c1c(C2CC2)ccc2cncn12)C1CCC(c2csc3ccccc23)CC1 (single isomer, unassigned) [Example D155b]
